Test results as given in PMC9909315, “SY-707, an ALK/FAK/IGF1R inhibitor, suppresses growth and metastasis of breast cancer cells” (Acta Biochimica et Biophysica Sinica, 2022).
Like-named read-outs stand apart in the source and are kept apart here.

What was measured:
[1] = system: T47D cells; experiment: Would healing (migration) assay; type: cell-based; details: 24 h, vs control
Description: (§1) Totally, 5×10 ^5 cells were plated into each well of 6-well plates, and cultured to 70%–80% confluence, then the cell monolayer was gently and slowly scratched with a new 1-mL pipette tip across the center of the well. After scratching, the wells were gently washed with PBS twice to remove the detached cells, and replenished with fresh medium containing indicated concentration of compounds. The treated cells were allowed to grow for additional 24 h, and images were capturedunder a microscope. The migration distance were calculated and analyzed to evaluate the effects of compounds.

[2] = system: MCF-7 cells; experiment: Would healing (migration) assay; type: cell-based; details: MCF-7, 24 h, vs control
Description: as §1

[3] = Pharmacokinetic study; type: in vivo, beagle dogs; details: serum, Beagle dog, 5 mg/kg PO; for CL/F: read-out: Cl_F_obs (converted); for MRT inf: read-out: MRT INF_obs
Description: Female SD rats (5-6 weeks old) or beagle dogs were administrated with SY-707 at a single dose of 5 mg/kg, and blood samples were taken sequentially from 2 min to 24 h after compound administration. […] The serum samples were collected by centrifugation and stored at –80 °C. Compound concentrations in the sample serums were further analyzed with an API-4000 LC-MS/MS system (Applied Biosystem, Foster City, USA), and pharmacokinetic parameters ( T 1/2, T max, C max, AUC 0-INF, Cl_F_obs, MRT INF_obs, and F(%)) were calcuated using the WinNonlin software (version 6.2; WinNonlin Professional, Pharsight, USA).

[4] = system: T47D cells; experiment: Western blot for cleaved PARP; type: cell-based; details: various concentrations, 24 h
Description: (§2) Equal amounts of cell lysates were loaded onto 10% SDS-PAGE gel and separated by electrophoresis. Separated proteins were then electro-transferred onto polyvinylidene fluoride (PVDF) membranes (Millipore, Bedford, USA). After being blocked with Tris-buffered saline containing 0.1% Tween-20 (TBST) and 5% bovine serum albumin (BSA), the membranes were incubated with primary antibodies at room temperature for 2 hours or at 4°C, then washed with TBST, followed by treatment with horseradish peroxidase (HRP)-conjugated goat anti-rabbit IgG secondary antibody at room temperature for another 1 h. The targeted protein bands were visualized using an enhanced chemiluminescence (ECL) plus system (Thermo Fisher Scientific). Primary antibodies against phospho-FAK (3283, 1:1000 dilution), phospho-ERK (4377, 1:2000 dilution), phospho-AKT (4060, 1:2000 dilution), FAK (3285, 1:1000 dilution), AKT (6703, 1:1000 dilution) and β-Actin (5125, 1:10,0000 dilution) were purchased from Cell Signaling Technology (Beverly, USA) and the HRP-conjugated goat anti-rabbit IgG (ZDR-5306, 1:10,000 dilution) was purchased from Jackson (West Grove, USA ).
(§3) Cells were cultured and treated with SY-707 under the indicated concentrations (0.01, 0.1 and 1 μM respectively) for 24 h, then stained with Annexin-V and 7-AAD for cell apoptosis analysis by Guava flow cytometry.

[5] = system: MCF-7 cells; experiment: Western blot for cleaved PARP; type: cell-based; details: MCF-7, various concentrations, 24 h
Description: as §2, §3

[6] = system: phosphorylation of FAK at Tyr397; experiment: Western blot of FAK phosphorylation in T47D cells; type: cell-based; details: 1 h treatment
Description: as §2
Cells were cultured in 6-well plates and treated with the indicated concentrations of SY-707 for 1 h before stimulation with or without 100 ng/mL IGF1 for 10 min. Control cells received the drug vehicle with 0.1% DMSO. […]

[7] = molecular target: FAK, Pyk2, LTK, IRK and IGF1R; experiment: HTRF kinase enzyme assay, summary over several kinases; type: biochemical; details: around; span over the named kinases
Description: Homogeneous time-resolved fluorescence (HTRF) assay was performed to analyze kinase enzyme activity and compound potency using HTRF ® KinEASE ^TM-TK kit (Cisbio Bioassays, Shanghai, China). Compound SY-707 was serially diluted by 3 folds from 1 mM stock solution in DMSO, and 4 μL of the diluted solution of the compounds was added to 96 μL of reaction buffer (50 mM HEPES, pH 7.0, 0.1 mM Na 3VO 4, 0.01% BAS, 5 mM MgCl 2, 1 mM DTT), then 2.5 μL of 4× compound solution and 5 μL of 2× kinases solution were added to a 384-well plate (OptiPlate-384; PerkinElmer, Wellesley, USA ). The resulted solutions were briefly mixed, centrifuged and incubated for 5 min. Finally, 2.5 μL of 4× ATP/TK peptide (ATP at K m for each kinase) solution was added to the reaction system to initiate the reaction. The enzymatic reaction was carried out for 60-120 min at 23°C, then terminated by addition of 5 μL of detection solution containing TK antibody-cryptate and 5 μL of Streptravidin-XL-665. The mixture was incubated for additional 1 h at 23°C. The fluorescent signals were measured with an EnVision multilabel plate reader (PerkinElmer). IC 50 values of the compounds were calculated using the GraFit software (Version 6.0) and presented as the mean of three independent experiments performed in duplicate.

[8] = molecular target: FAK (Homo sapiens, UniProt Q05397); experiment: HTRF kinase enzyme assay; type: biochemical; details: ATP at Km
Chain of FAK (Q05397 whole entry): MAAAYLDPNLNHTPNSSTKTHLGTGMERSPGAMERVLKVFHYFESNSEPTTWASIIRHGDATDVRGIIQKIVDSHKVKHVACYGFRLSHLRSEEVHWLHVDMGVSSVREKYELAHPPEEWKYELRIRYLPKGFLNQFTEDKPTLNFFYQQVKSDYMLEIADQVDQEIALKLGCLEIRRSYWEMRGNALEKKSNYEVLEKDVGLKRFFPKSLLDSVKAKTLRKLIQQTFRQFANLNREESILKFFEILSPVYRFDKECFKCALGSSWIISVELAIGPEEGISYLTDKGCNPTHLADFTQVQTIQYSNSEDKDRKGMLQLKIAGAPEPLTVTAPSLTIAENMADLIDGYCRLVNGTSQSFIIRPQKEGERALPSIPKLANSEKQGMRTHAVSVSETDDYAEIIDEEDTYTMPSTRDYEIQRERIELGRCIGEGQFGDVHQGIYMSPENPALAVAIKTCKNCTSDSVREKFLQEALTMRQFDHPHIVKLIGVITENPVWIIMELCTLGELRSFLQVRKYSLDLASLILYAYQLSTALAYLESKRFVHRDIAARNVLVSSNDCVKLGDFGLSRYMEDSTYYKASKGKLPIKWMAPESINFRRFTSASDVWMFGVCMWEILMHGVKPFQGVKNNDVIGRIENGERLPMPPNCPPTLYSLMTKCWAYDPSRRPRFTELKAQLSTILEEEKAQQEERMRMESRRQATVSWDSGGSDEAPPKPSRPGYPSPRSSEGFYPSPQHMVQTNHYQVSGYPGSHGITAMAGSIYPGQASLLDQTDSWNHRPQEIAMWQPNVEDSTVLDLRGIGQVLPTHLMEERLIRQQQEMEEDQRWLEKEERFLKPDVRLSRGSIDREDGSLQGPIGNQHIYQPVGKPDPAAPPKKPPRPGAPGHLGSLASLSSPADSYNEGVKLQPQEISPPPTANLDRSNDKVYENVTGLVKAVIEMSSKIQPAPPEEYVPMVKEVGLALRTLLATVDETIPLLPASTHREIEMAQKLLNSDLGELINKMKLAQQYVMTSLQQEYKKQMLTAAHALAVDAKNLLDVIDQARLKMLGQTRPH
Description: Homogeneous time-resolved fluorescence (HTRF) assay was performed to analyze kinase enzyme activity and compound potency using HTRF ® KinEASE ^TM-TK kit (Cisbio Bioassays, Shanghai, China). […] The resulted solutions were briefly mixed, centrifuged and incubated for 5 min. Finally, 2.5 μL of 4× ATP/TK peptide (ATP at K m for each kinase) solution was added to the reaction system to initiate the reaction. The enzymatic reaction was carried out for 60-120 min at 23°C, then terminated by addition of 5 μL of detection solution containing TK antibody-cryptate and 5 μL of Streptravidin-XL-665. The mixture was incubated for additional 1 h at 23°C. The fluorescent signals were measured with an EnVision multilabel plate reader (PerkinElmer). IC 50 values of the compounds were calculated using the GraFit software (Version 6.0) and presented as the mean of three independent experiments performed in duplicate.

[9] = Tissue distribution; type: in vivo; details: SD rats, oral 15 mg/kg; except the uterus and spleen
Description: In addition, SY-707 also had good clearance parameters and oral bioavailability in these two species.
Supplementary Figure S1. The tissue distribution profile of SY-707 Tissue distribution of SY-707 in SD rats was measured after oral administration of SY-707 (15 mg/kg).

[10] = system: T47D cells; experiment: Cell adhesion assay; type: cell-based; details: 24 h pretreatment, dose-dependent
Description: (§4) MCF-7 and T47D cells were plated in 6-well plates and pretreated with different concentrations of PF-562271 or SY-707 for 24 h, and then trypsinized, washed and resuspended in culture medium. Cells were added into each well and incubated for 6 h. Non-adherent cells were collected by washing with PBS and counted.

[11] = system: MCF-7 cells; experiment: Cell adhesion assay; type: cell-based; details: MCF-7, 24 h pretreatment, dose-dependent
Description: as §4

COc1cc(N2CCC(N3CCN(C)CC3)CC2)ccc1Nc1nc2c(c(Nc3ccccc3S(=O)(=O)NC(C)C)n1)CCN2 [SY-707, N-isopropyl-2-((2-((2-methoxy-4-(4-(4-methylpiperazin-1-yl)piperidin-1-yl)phenyl)amino)-6,7-dihydro-5H-pyrrolo[2,3-d]pyrimidin-4-yl)amino)benzenesulfonamide]
migration distance [1]: significantly decreased
migration distance [2]: significantly decreased
AUC(0-inf) ([3]; both sexes, All): 459 ng·h/mL
Cmax ([3]; both sexes, All): 36 ng/mL
Tmax ([3]; both sexes, All): 2.83 h
bioavailability ([3]; both sexes, All): 21.1%
half-life ([3]; both sexes, All): 9.72 h
CL/F ([3]; both sexes, All): 195 mL/min/kg
MRT inf ([3]; both sexes, All): 13.6 h
AUC(0-inf) ([3]; Female): 438 ng·h/mL
Cmax ([3]; Female): 34.2 ng/mL
Tmax ([3]; Female): 2.67 h
bioavailability ([3]; Female): 18.8%
half-life ([3]; Female): 10.1 h
CL/F ([3]; Female): 202 mL/min/kg
MRT inf ([3]; Female): 13.7 h
AUC(0-inf) ([3]; Male): 479 ng·h/mL
Cmax ([3]; Male): 37.8 ng/mL
Tmax ([3]; Male): 3 h
bioavailability ([3]; Male): 23.8%
half-life ([3]; Male): 9.33 h
CL/F ([3]; Male): 188 mL/min/kg
MRT inf ([3]; Male): 13.6 h
cleaved PARP [4]: markedly detected
cleaved PARP [5]: markedly detected
phosphorylation of FAK at Tyr397 [6]: dose-dependently suppressed
IC50 [7]: 1 to 10 nM
IC50 [8]: 1.6 ± 0.5 nM
distribution in rat tissues (AUC 0–24 h) relative to plasma [9]: other organs had lower level of SY-707 than the plasma
cell adhesion [10]: characteristically repressed
cell adhesion [11]: characteristically repressed
